In ChEMBL document CHEMBL3856211, “A critical review of both the synthesis approach and the receptor profile of the 8-chloro-1-(2',4'-dichlorophenyl)-N-piperidin-1-yl-1,4,5,6-tetrahydrobenzo[6,7]cyclohepta[1,2-c]pyrazole-3-carboxamide and analogue derivatives” (Eur J Med Chem, 2016):
Several values for one entry are separate records, joined by “and”; a condition that tells them apart may be missing. Identical values can stand only once. Activity calls are given as the source filed them. The calls are words filed in the database; no cut-off is given here.

Tests used:
[1] = target: Cannabinoid receptor 2 (Homo sapiens, UniProt P34972); experiment: Displacement of [3H]-CP55,940 from human CB2 receptor transfected in CHO cell membranes after 60 mins by liquid scintillation spectrometry
Cannabinoid receptor 2, sequence (P34972 whole entry): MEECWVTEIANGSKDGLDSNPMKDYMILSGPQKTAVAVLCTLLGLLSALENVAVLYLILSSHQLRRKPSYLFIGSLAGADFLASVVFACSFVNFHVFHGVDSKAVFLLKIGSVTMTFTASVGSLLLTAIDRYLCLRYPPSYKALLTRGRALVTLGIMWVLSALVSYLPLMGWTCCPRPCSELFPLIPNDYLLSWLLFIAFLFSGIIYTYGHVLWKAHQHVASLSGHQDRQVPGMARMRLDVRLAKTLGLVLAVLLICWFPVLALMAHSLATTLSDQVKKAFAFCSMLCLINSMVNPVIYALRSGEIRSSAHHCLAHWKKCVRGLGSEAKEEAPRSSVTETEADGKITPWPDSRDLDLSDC

[2] = Selectivity ratio of Ki for human CB2 receptor to Ki for CB1 receptor in mouse whole brain membranes; type: cell membranes
[3] = target: Cannabinoid receptor 1 (Mus musculus, UniProt P47746); experiment: Displacement of [3H]-CP55,940 from CB1 receptor in mouse whole brain membranes after 60 mins by liquid scintillation spectrometry; type: cell membranes, Membrane
Cannabinoid receptor 1 (Mus musculus, UniProt P47746), sequence (P47746 whole entry): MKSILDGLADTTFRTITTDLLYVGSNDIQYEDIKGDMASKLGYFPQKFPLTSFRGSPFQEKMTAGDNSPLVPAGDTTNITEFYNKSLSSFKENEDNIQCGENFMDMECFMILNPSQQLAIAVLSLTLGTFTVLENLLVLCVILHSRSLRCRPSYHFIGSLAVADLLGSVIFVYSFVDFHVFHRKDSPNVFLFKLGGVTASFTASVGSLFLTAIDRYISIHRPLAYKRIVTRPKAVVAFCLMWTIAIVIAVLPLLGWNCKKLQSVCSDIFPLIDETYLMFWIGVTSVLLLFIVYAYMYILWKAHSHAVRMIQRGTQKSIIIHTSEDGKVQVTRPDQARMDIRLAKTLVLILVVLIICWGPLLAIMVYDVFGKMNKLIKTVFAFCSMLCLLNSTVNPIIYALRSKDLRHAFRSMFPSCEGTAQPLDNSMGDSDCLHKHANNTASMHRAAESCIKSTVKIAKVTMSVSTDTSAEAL

[4] = target: Cannabinoid receptor 1 (Mus musculus) (UniProt P47746); experiment: Intrinsic activity at CB1 receptor in mouse N1E-115 cells assessed as phosphorylation of ERK1/2 at 1 uM after 10 mins by Western blot method relative to control; type: cell-based
Cannabinoid receptor 1 (Mus musculus), sequence (P47746 whole entry): as above

[5] = target: Cannabinoid receptor 1 (Mus musculus) (UniProt P47746); experiment: Antagonist activity at CB1 receptor in mouse N1E-115 cells assessed as inhibition of WIN55,212-2-induced phosphorylation of ERK1/2 by measuring phosphorylated ERK1/2 level at 1 uM preincubated for 5 mins followed by WIN55,212-2 addition measured after 10 mins by Western blot method; type: cell-based; set-up: scale not given: the % may be the effect or the level left
[6] = target: Cannabinoid receptor 1 (Mus musculus) (UniProt P47746); experiment: Intrinsic activity at CB1 receptor in mouse N1E-115 cells assessed as phosphorylation of ERK1/2 at 1 nM to 10 uM after 10 mins by Western blot method; type: cell-based
[7] = target: Cannabinoid receptor 1 (Homo sapiens, UniProt P21554); experiment: Displacement of [3H]-CP55,940 from human CB1 receptor transfected in CHO cell membranes
Cannabinoid receptor 1 (Homo sapiens, UniProt P21554), sequence (P21554 whole entry): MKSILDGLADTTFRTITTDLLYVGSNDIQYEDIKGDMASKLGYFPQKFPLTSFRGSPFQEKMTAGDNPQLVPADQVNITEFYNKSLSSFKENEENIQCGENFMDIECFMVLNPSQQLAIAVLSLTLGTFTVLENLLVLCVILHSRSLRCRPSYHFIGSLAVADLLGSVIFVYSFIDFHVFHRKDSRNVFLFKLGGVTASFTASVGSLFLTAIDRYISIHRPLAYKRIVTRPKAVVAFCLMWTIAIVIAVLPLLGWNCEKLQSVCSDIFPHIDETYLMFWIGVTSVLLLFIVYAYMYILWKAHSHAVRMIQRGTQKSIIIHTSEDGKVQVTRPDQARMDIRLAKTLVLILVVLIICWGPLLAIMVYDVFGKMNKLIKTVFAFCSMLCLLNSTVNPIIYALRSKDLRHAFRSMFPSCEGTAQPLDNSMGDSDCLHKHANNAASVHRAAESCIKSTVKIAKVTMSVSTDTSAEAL

Q: With OC(CC1CCCCC1)c1nn(-c2ccc(Cl)cc2Cl)c2c1CCCc1cc(Cl)ccc1-2 (stereo unspecified) as the compound, how does the Ki [1] read?
A: 0.024 µM

Q: What about the Ratio Ki [2] of the same compound?
A: 0.16

Q: And the Ki [3]?
A: 0.154 µM

Q: Which results are given for Cc1ccc(Cn2nc(C(=O)NCC3CCC4CC3C4(C)C)c3c2-c2ccc(Cl)cc2CCC3)cc1 (stereo unspecified)?
A: Ki [1]: 0.0095 µM; Ratio Ki [2]: 0.03; Ki [3]: 0.313 µM

Q: What does the source list for O=C(NC[C@H]1CCCO1)c1nn(-c2ccc(Cl)cc2Cl)c2c1CCCc1cc(Cl)ccc1-2?
A: Intrinsic activity [4]: 113%; Ki [1]: 0.0521 µM; Activity [5]: 118%; Ratio Ki [2]: 2.1; Ki [3]: 0.0248 µM

Q: Which Intrinsic activity [4] does the source give for O=C(NCC12CC3CC(CC(C3)C1)C2)c1nn(-c2ccc(Cl)cc2Cl)c2c1CCCc1cc(Cl)ccc1-2 here?
A: 98%

Q: And the Ki [1]?
A: 0.0133 µM

Q: What about the Activity [5] of the same compound?
A: 108%

Q: What about the Ratio Ki [2] of the same compound?
A: 0.69

Q: And the Ki [3]?
A: 0.0191 µM

Q: With O=C(CC1CCCCC1)c1nn(-c2ccc(Cl)cc2Cl)c2c1CCCc1cc(Cl)ccc1-2 as the compound, how does the Intrinsic activity [4] read?
A: 115%

Q: What about the Ki [1] of the same compound?
A: 0.325 µM

Q: What about the Activity [5] of the same compound?
A: 105%

Q: What about the Ratio Ki [2] of the same compound?
A: 38.2

Q: And the Ki [3]?
A: 0.0085 µM

Q: For Cc1c(C(=O)NN2CCCCC2)nn(-c2ccc(Cl)cc2Cl)c1-c1ccc(Cl)cc1, which Intrinsic activity [4] is on record?
A: 110%

Q: What about the Activity [5] of the same compound?
A: 108%

Q: What does the source list for O=C(NC1CCCCC1)c1nn(-c2ccc(Cl)cc2Cl)c2c1CCCc1cc(Cl)ccc1-2?
A: Intrinsic activity [4]: 113%; Ki [1]: 0.0179 µM; Activity [5]: 117%; Ratio Ki [2]: 1.75; Ki [3]: 0.0102 µM

Q: Which results are given for CC1(C)C2CCC(CNC(=O)c3nn(-c4ccc(Cl)cc4Cl)c4c3CCCc3cc(Cl)ccc3-4)C1C2 (stereo unspecified)?
A: Ki [1]: 0.0195 µM; Activity [6]: Active; Ratio Ki [2]: 5.42; Ki [3]: 0.0036 µM

Q: With CCCCCCC(C)(C)c1ccc([C@@H]2C[C@H](O)CC[C@H]2CCCO)c(O)c1 [CP-55940] as the compound, how does the Ki [3] read?
A: 0.00062 µM

Q: Which Ki [1] does the source give for CC1(C)C2CCC(CNC(=O)c3nn(-c4ccc(Cl)cc4Cl)c4c3CCCc3ccc(Cl)cc3-4)C1C2 (stereo unspecified) here?
A: 0.0136 µM

Q: What about the Activity [6] of the same compound?
A: Active

Q: And the Ratio Ki [2]?
A: 0.79

Q: And the Ki [3]?
A: 0.0173 µM

Q: With O=C(NN1CCCC1)c1nn(-c2ccc(Cl)cc2Cl)c2c1CCCc1cc(Cl)ccc1-2 as the compound, how does the Intrinsic activity [4] read?
A: 95%

Q: And the Ki [1]?
A: 0.182 µM

Q: What about the Activity [5] of the same compound?
A: 103%

Q: What about the Ratio Ki [2] of the same compound?
A: 10.6

Q: What about the Ki [3] of the same compound?
A: 0.0172 µM

Q: Which Ki [1] does the source give for Cc1ccc(Cn2nc(C(=O)NCC3CCC4CC3C4(C)C)c3c2-c2cc(Cl)ccc2CCC3)cc1 (stereo unspecified) here?
A: 0.0511 µM

Q: And the Ratio Ki [2]?
A: 0.3

Q: And the Ki [3]?
A: 0.169 µM

Q: Which results are given for O=C(NCC1CCCCC1)c1nn(-c2ccc(Cl)cc2Cl)c2c1CCCc1cc(Cl)ccc1-2?
A: Intrinsic activity [4]: 100%; Ki [1]: 0.0318 µM; Activity [5]: 109%; Ratio Ki [2]: 1.64; Ki [3]: 0.0194 µM

Q: Which Intrinsic activity [4] does the source give for O=C(NN1CCCCCC1)c1nn(-c2ccc(Cl)cc2Cl)c2c1CCCc1cc(Cl)ccc1-2 here?
A: 107%

Q: And the Ki [1]?
A: 0.0281 µM

Q: And the Activity [5]?
A: 102%

Q: What about the Ratio Ki [2] of the same compound?
A: 6.24

Q: What about the Ki [3] of the same compound?
A: 0.0045 µM

Q: For O=C(NN1CCCCC1)c1nn(-c2ccc(Cl)cc2Cl)c2c1CCCc1cc(Cl)ccc1-2, which Intrinsic activity [4] is on record?
A: 111%

Q: And the Ki [1]?
A: 0.0557 µM and 0.0852 µM

Q: And the Ki [7]?
A: 0.126 µM

Q: What about the Activity [5] of the same compound?
A: 115%

Q: And the Ratio Ki [2]?
A: 13.3

Q: What about the Ki [3] of the same compound?
A: 0.00818 µM and 0.0042 µM
